Data on eight molecules can be found in patent US8343459B2, “Method for production of radiation diagnostic imaging agent” (Nihon Medi-Physics Co., Ltd., priority 2007, dated 2013).

Each structure is given as a SMILES string.

One data set can be described thus: Relationship between pH and decrease of radiochemical purity (storage at 25° C., TLC analysis). Particulars: pH value not more than 5.9, no pharmaceutical additives or buffers that prevent radiolysis. The class given is physicochemical. Here is the method: Radioactivity of the obtained stock solution of anti-[^18F]-FACBC was measured, and then the stock solution was diluted with a physiological saline solution so as to have a radioactive concentration of about 510 MBq/mL at the time when experiment was initiated (0 hour in Table 9). 2.23 mL of this solution was aliquoted in a vial of 5 mL in volume, and a predetermined amount of a predetermined solution indicated in Table 8 was added thereto, to obtain a sample solution. The radioactive concentration of the sample solutions at the end of preparation was […].
The sample solution was stored in an electric thermostatic chamber adjusted to 25° C., and was then subjected to TLC analysis which was performed on the following conditions at the time of initiation of the experiment (0 hour) and 8.5 hours after the initiation of the experiment. Values of radiochemical purity were calculated in accordance with the following equation (1). Measurement of the radiochemical purity was repeated three times for each sample solution.
Mobile phase: acetonitrile/water/100% acetic acid=4/1/1
TLC plate: Silica Gel 60F254 (trade name, thickness: 0.25 mm, manufactured by Merck & Co., Inc.)
TLC scanner: Rita Star (manufactured by Raytest)
Number of analysis: Three times
For `NC1(C(=O)O)CC([18F])C1` (centres unmarked) [[^18F]FACBC, 3-[^18F]fluoro-1-aminocyclobutanecarboxylic acid], the stability against radiolysis result was “stability thereof is maintained”.

Test in the next data set: not given
The following applies: Japanese Pharmaceutical Excipients Directory 2000; cited from earlier work.
Consider `O=C(CO)[C@@H](O)[C@H](O)[C@H](O)CO` [fructose], for which the “maximum dose in case of intravenous administration” value (“maximum dose in case” below) is 0.9 g.

`O=C[C@H](O)[C@@H](O)[C@H](O)[C@H](O)CO` [glucose]: the “maximum dose in case” value is listed as 8 g.

As for `OC[C@H]1O[C@@H](O[C@H]2[C@H](O)[C@@H](O)C(O)O[C@@H]2CO)[C@H](O)[C@@H](O)[C@H]1O` (some centres unmarked) [lactose], the “maximum dose in case” value was 1.25 g.

For the molecule `OC[C@@H](O)[C@@H](O)[C@H](O)[C@H](O)CO` [mannitol], the “maximum dose in case” value is on record as 1.2 g.

As for `OC[C@H]1O[C@H](O[C@H]2[C@H](O)[C@@H](O)[C@H](O)O[C@@H]2CO)[C@H](O)[C@@H](O)[C@@H]1O` [martose], the “maximum dose in case” value was 10 g.

As to `OC[C@@H](O)[C@@H](O)[C@H](O)[C@@H](O)CO` [sorbitol], the “maximum dose in case” value is 1.5 g.

With `OC[C@@H](O)[C@H](O)[C@@H](O)CO` [xylitol], the “maximum dose in case” value was 0.2 g.
